Tests used:
Type in all cases: physicochemical
[1] = Second-order rate constant of IEDDA reaction of TCO with tetrazine 2.2 in MeCN by UV-Vis; conditions: activator 2.2; in MeCN at 20 °C; second-order conditions
Procedure: (§1) The second-order rate constant of the IEDDA reaction of 3,6-dimethyl-1,2,4,5-tetrazine (2.1) or 3,6-di(pyridin-2-yl)-1,2,4,5-tetrazine (2.2) and a compound of the disclosure in MeCN at 20 °C was determined by UV-Vis spectrometry under second-order reaction conditions (n=1). A cuvette was filled with a solution of 3,6-dimethyl-1,2,4,5-tetrazine or 3,6-di(pyridin-2-yl)-1,2,4,5-tetrazine (3 mL 0.083 mM in MeCN), and equilibrated at 20 °C. Next, a solution of the compound of the disclosure (10.0 μL 25 mM in acetonitrile, 2.50×10^−7 mol) was added, and the solution was quickly homogenized and inserted in the UV spectrometer. The absorption at λ=540 nm (specific for the tetrazine moiety) was measured every second in a time course experiment. From the decay of this absorption, the conversion was calculated. The second-order rate constant k2 was determined from the slope of the curve of a plot of 1/c −1/c0 versus time.

[2] = Second-order rate constant of IEDDA reaction of TCO with tetrazine 2.1 in MeCN by UV-Vis; conditions: activator 2.1; in MeCN at 20 °C; second-order conditions
Procedure: as §1

[3] = Releasing activity of s-TCO derivatives on reaction with 3,6-dimethyl-1,2,4,5-tetrazine (HPLC-MS PDA); conditions: acetonitrile/PBS; for formation of the (pyridazine) elimination product: after 30 min
Procedure: To a stock solution of 1.7 (10 uL 17.8 mM in DMSO, 1.78×10^−7 mol) was added acetonitrile (0.2 mL), PBS (0.8 mL), and a stock solution of 3,6-dimethyl-1,2,4,5-tetrazine (7.1 uL 25 mM in DMSO, 1.78×10^−7 mol). […] ESI-MS: m/z Calc. for C18H21N3O4 343.15 Da; Obs. [M+H]^+ 344.25 Da, max=243 nm.
To a solution of 1.21 (3.75×10^−7 mol) in acetonitrile (0.2 mL) was added PBS (0.8 mL), and a stock solution of 3,6-dimethyl-1,2,4,5-tetrazine (20 uL 25 mM in DMSO, 5.0×10^−7 mol). […] ESI-MS: m/z Calc. for C18H21N3O4 343.15 Da; Obs. [M+H]^+ 344.25 Da, λmax=250 nm.
To a solution of 1.22 (3.75×10-8 mol) in acetonitrile (0.02 mL) was added PBS (0.08 mL), and a stock solution of 3,6-dimethyl-1,2,4,5-tetrazine (2 uL 25 mM in DMSO, 5.0×10-8 mol).

| Structure (SMILES) | Rate constants k2 [1] [M⁻¹ s⁻¹] | Rate constants k2 [2] [M⁻¹ s⁻¹] | disappearance of the pink color (tetrazine consumption) [3] | formation of the (pyridazine) elimination product [3] |
| --- | --- | --- | --- | --- |
| O=C1O[C@@H]2C=CCCC[C@@H]3[C@H]1[C@@H]32 (stereo in doubt) [Compound 1.17a, (1R,2S,8R,11S,E)-9-Oxatricyclo[6.3.0.0^2,11]undec-6-en-10-one] | 1100 | 11.5 |  |  |
| O=C1O[C@@H]2C=CCCC[C@@H]3[C@H]1[C@@H]32 (stereo in doubt) [Compound 1.17b, (1R,2S,8R,11S,E)-9-Oxatricyclo[6.3.0.0^2,11]undec-6-en-10-one] |  | 8.7 |  |  |
| COC(=O)[C@H]1[C@H]2CCC/C=C/[C@@H](O)[C@H]21 [Compound 1.16a, Methyl (1R,2R,8S,9S,E)-2-hydroxybicyclo[6.1.0]non-3-ene-9-carboxylate] |  | 7.0 |  |  |
| CN(Cc1ccccc1)C(=O)O[C@@H]1/C=C/CCC[C@@H]2[C@H](C(=O)ON3C(=O)CCC3=O)[C@@H]21 [Compound 1.21, 2,5-Dioxopyrrolidin-1-yl (1R,2R,8S,9S,E)-2-((benzyl(methyl)carbamoyl)oxy)bicyclo[6.1.0]non-3-ene-9-carboxylate] | 605 | 8.0 | within minutes | quantitative formation |
| COC(=O)[C@@H]1[C@@H]2C/C=C/[C@H](O)CC[C@@H]21 [Compound 1.6b, Methyl (1R,5R,8S,9S,E)-5-hydroxybicyclo[6.1.0]non-3-ene-9-carboxylate] |  | 3.3 |  |  |
| COC(=O)[C@H]1[C@H]2CCC/C=C/[C@@H](O)[C@H]21 [Compound 1.16b, Methyl (1R,2R,8S,9S,E)-2-hydroxybicyclo[6.1.0]non-3-ene-9-carboxylate] |  | 0.3 |  |  |
| CN(Cc1ccccc1)C(=O)O[C@H]1/C=C/C[C@@H]2[C@H](CC1)[C@@H]2C(=O)ON1C(=O)CCC1=O [Compound 1.7, 2,5-Dioxopyrrolidin-1-yl (1R,5R,8S,9S,E)-5-((benzyl(methyl)carbamoyl)oxy)bicyclo[6.1.0]non-3-ene-9-carboxylate] | 375 | 2.9 | within minutes | quantitative formation |
